Results reported in US4683221A, “Lymphocyte-activating polypeptides” (Scripps Clinic and Research Foundation, priority 1986, dated 1987).
Ends that are not written are not given here.

How the values were obtained:
Type in all cases: cell-based
[1] = test system: mouse spleen cells; test: Polyclonal antibody response assay (Ig secretion measured by ELISA); conditions: C57BL/6 spleen cells, 5 days; equimolar amounts of polypeptide, 1.5 mg/ml of p23 as standard
Excerpt: This assay measures the activity of a polypeptide in potentiating an in vitro polyclonal antibody response using mouse spleen cells.
For the generation of immunoglobulin (Ig) secretion response, spleen cells from inbred male 8-15 week old C57BL/6 mice (The Jackson Laboratory, Bar Harbor, ME) were suspended in RPMI 1640 medium (M.A. Bioproducts, Walkersville, MD) supplemented with 2 millimolar (mM) L-glutamine, one percent BME vitamins (GIBCO, Grand Island, NY), 5×10^-5 molar (M) 2-mercaptoethanol, 7.5 percent fetal calf serum (FCS;GIBCO), and 0.001 percent gentamicin (Schering Corp., Kenilworth, NJ). Cells (6×10^5) in 0.2 milliliters (ml) of the supplemented medium were added to flat-bottomed microtiter plate wells (No. 3596: Costar, Cambridge, MA). Cultures were established in triplicate, and a polypeptide-containing composition was added in a volume of 50 microliters per well (ul/well).
To establish comparison between polypeptides of different lengths, equimolar amounts of polypeptide were used, with 1.5 milligrams per milliter (mg/ml) of the 23-residue polypeptide corresponding in sequence to positions 335-357 of the human IgGl myeloma protein as standard. […] Supernatants from triplicate cell culture wells were harvested, pooled, centrifuged to remove cells and stored at -20° C. Concentrations of Ig in the supernatants were determined by the ELISA assay described hereinbelow.
The ELISA utilized to measure polyclonal activation was a so-called "sandwich" assay in which the assayed entity, mouse Ig molecules, are bound to solid phase-bound anti-mouse Ig antibodies and then bound by indicator (alkaline phosphatase)-linked anti-mouse Ig antibodies.
(B) 100 Microliters of various dilutions of either the Ig standard or culture supernatants were then admixed in PBS-Tween. […]
Each well then received 100 ul of 1 mg p-nitrophenyl phosphate (Sigma Chemical Co., St. Louis, MO) in 0.05 M carbonate, pH 9.8. The reaction was stopped with 50 ml of 0.3 N NaOH, and the light absorbance at 410 nanometers (nm) was measured by using a Dynatech model MR600 ELISA reader. […]

[2] = test system: murine macrophage-like cell line denominated P388.D1; test: Prostaglandin E secretion (radioimmune assay); conditions: 25 ug/ml of p23 or an equimolar amount of another polypeptide, 24 hours; initial data
Procedure: (§1) The cell lines used in these studies were: (1) murine plastic-adherent macrophages; (2) human plastic-adherent monocytes; and (3) the murine macrophage-like cell line denominated P388.D1 [Snyderman et al., J. Immunol., 119, 2060 (1977)]. […] Thereafter, the cell culture supernatant was assayed for the presence of a prostaglandin E using a commercially available radioimmune assay (Seragen).

[3] = test system: human plastic-adherent monocytes; test: Prostaglandin E secretion (radioimmune assay); conditions: 25 ug/ml of p23 or an equimolar amount of another polypeptide, 24 hours; initial data
Procedure: as §1

[4] = test system: murine plastic-adherent macrophages; test: Prostaglandin E secretion (radioimmune assay); conditions: 25 ug/ml of p23 or an equimolar amount of another polypeptide, 24 hours; initial data
Procedure: as §1

LPPSREE [I-51(a), Leu-Pro-Pro-Ser-Arg-Glu-Glu]
Ig Found (amount of polyclonal Ig molecules found in the assay) [1]: 10.2 µg/mL | secretion of a prostaglandin E into the culture medium [2]: incapable of inducing | secretion of a prostaglandin E into the culture medium [3]: incapable of inducing | secretion of a prostaglandin E into the culture medium [4]: incapable of inducing

QVYTLPPSREE [I-51(c)]
Ig Found (amount of polyclonal Ig molecules found in the assay) [1]: 11.7 µg/mL | secretion of a prostaglandin E into the culture medium [2]: incapable of inducing | secretion of a prostaglandin E into the culture medium [3]: incapable of inducing | secretion of a prostaglandin E into the culture medium [4]: incapable of inducing

YTLPPSREE [I-51(b)]
Ig Found (amount of polyclonal Ig molecules found in the assay) [1]: 10.7 µg/mL | secretion of a prostaglandin E into the culture medium [2]: incapable of inducing | secretion of a prostaglandin E into the culture medium [3]: incapable of inducing | secretion of a prostaglandin E into the culture medium [4]: incapable of inducing
